Reference: patent US7807676B2, “Diketo-Piperazine and Piperidine derivatives as antiviral agents” (priority 2006, dated 2010)

The molecules below were run on HIV-1 single-round infectious reporter virus (assay: Single-round infectious HIV-1 luciferase reporter virus infection of HeLa CD4 cells (antiviral EC50)). Details: Human immunodeficiency virus 1, HeLa, read-out: EC50 Group from Table 3.
Format: cell-based
In short: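 Env-pseudotyped single-round HIV-1 reporter virus (env-deleted provirus with luciferase in place of nef, made in 293 cells) infected HeLa CD4 cells at MOI ~0.01 with compound present, up to 10 μM final. Luciferase luminescence read after 72 h at 37 °C; EC50 from four-parameter logistic fit of % inhibition over 10 concentrations.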

Compound | EC50 [nM]
O=C(NCCO)c1ncc(F)c2c(C(=O)C(=O)N3CCN(c4nnnn4-c4ccccc4)CC3)c[nH]c12 [B-55] | < 500
CN(C)c1cnc(C(=O)NCCO)c2[nH]cc(C(=O)C(=O)N3CCN(c4nnnn4-c4ccccc4)CC3)c12 [B-56] | < 500
CCOC(=O)c1ncc(F)c2c(C(=O)C(=O)N3CCN(c4nnnn4-c4ccccc4)CC3)c[nH]c12 [B-57] | < 500
COc1cnc(-c2csc(C3OCCO3)n2)c2[nH]cc(C(=O)C(=O)N3CCN(c4nnnn4-c4ccccc4)CC3)c12 [B-58] | < 500
CNCc1nc(-c2ncc(OC)c3c(C(=O)C(=O)N4CCN(c5nnnn5-c5ccccc5)CC4)c[nH]c23)cs1 [B-59] | < 500
CCOC(=O)c1cc(-c2ncc(F)c3c(C(=O)C(=O)N4CCN(c5nnnn5-c5ccccc5)CC4)cn(C)c23)nn1C [B-60] | < 500
COc1cnc(-c2cncnc2)c2[nH]cc(C(=O)C(=O)N3CCN(c4nnnn4-c4ccccc4)CC3)c12 [B-63] | < 500
COc1cnc(C(=O)NCCO)c2[nH]cc(C(=O)C(=O)N3CCN(c4nnnn4-c4ccccc4)CC3)c12 [B-64] | < 500
CNC(=O)c1ncc(OC)c2c(C(=O)C(=O)N3CCN(c4nnnn4-c4ccccc4)CC3)c[nH]c12 [B-65] | < 500
COc1cnc(C(=O)NC2CC2)c2[nH]cc(C(=O)C(=O)N3CCN(c4nnnn4-c4ccccn4)CC3)c12 [B-66] | < 500
COc1cnc(-c2cc(CO)[nH]n2)c2[nH]cc(C(=O)C(=O)N3CCN(c4nnnn4-c4ccccn4)CC3)c12 [B-67] | < 500
COc1cnc(-c2cc(C(C)(C)O)[nH]n2)c2[nH]cc(C(=O)C(=O)N3CCN(c4nnnn4-c4ccccn4)CC3)c12 [B-68] | < 500
COc1nc(-c2ncc(OC)c3c(C(=O)C(=O)N4CCN(c5nnnn5-c5ccccn5)CC4)c[nH]c23)cs1 [B-69] | < 500
COc1cnc(-c2cscn2)c2[nH]cc(C(=O)C(=O)N3CCN(c4nnnn4-c4ccccn4)CC3)c12 [B-70] | < 500
COc1cnc(-c2cncs2)c2[nH]cc(C(=O)C(=O)N3CCN(c4nnnn4-c4ccccn4)CC3)c12 [B-71] | < 500
COc1cnc(-c2cc[nH]n2)c2[nH]cc(C(=O)C(=O)N3CCN(c4nnnn4-c4ccccn4)CC3)c12 [B-72] | < 500
COc1cnc(-c2ccn(C)n2)c2[nH]cc(C(=O)C(=O)N3CCN(c4nnnn4-c4ccccn4)CC3)c12 [B-73] | < 500
COc1cnc(-c2ccn(CC(=O)O)n2)c2c1c(C(=O)C(=O)N1CCN(c3nnnn3-c3ccccn3)CC1)cn2CC(=O)O [B-74] | > 500
COc1cnc(-c2ccn(CC(=O)O)n2)c2[nH]cc(C(=O)C(=O)N3CCN(c4nnnn4-c4ccccn4)CC3)c12 [B-75] | < 500
COc1cnc(-c2ccn(CC(=O)N(C)C)n2)c2[nH]cc(C(=O)C(=O)N3CCN(c4nnnn4-c4ccccn4)CC3)c12 [B-76] | > 500
CNC(=O)Cn1ccc(-c2ncc(OC)c3c(C(=O)C(=O)N4CCN(c5nnnn5-c5ccccn5)CC4)c[nH]c23)n1 [B-77] | < 500
CCC(O)(CC)c1cc(-c2ncc(OC)c3c(C(=O)C(=O)N4CCN(c5nnnn5-c5ccccn5)CC4)c[nH]c23)n[nH]1 [B-78] | < 500
COc1cnc(-n2cc(Cl)cn2)c2[nH]cc(C(=O)C(=O)N3CCN(c4nnnn4-c4ccccn4)CC3)c12 [B-79] | < 500

Compound | EC50 [nM]
COc1cnc(-n2cnc(NC(=O)C(C)(C)C)n2)c2[nH]cc(C(=O)C(=O)N3CCN(c4nnnn4-c4ccccn4)CC3)c12 [B-80] | < 500
COc1cnc(-c2ccc(N3CCN(C(=O)OC(C)(C)C)CC3)cc2)c2[nH]cc(C(=O)C(=O)N3CCN(c4nnnn4-c4ccccn4)CC3)c12 [B-81] | < 500
COc1cnc(-c2ccc(N3CCNCC3)cc2)c2[nH]cc(C(=O)C(=O)N3CCN(c4nnnn4-c4ccccn4)CC3)c12 [B-82] | < 500
COc1cnc(-c2ccc(N3CCN(C(=O)OC(C)C)CC3)cc2)c2[nH]cc(C(=O)C(=O)N3CCN(c4nnnn4-c4ccccn4)CC3)c12 [B-83] | < 500
COc1cnc(-c2ccc(N3CCN(C(=O)OCC(C)C)CC3)cc2)c2[nH]cc(C(=O)C(=O)N3CCN(c4nnnn4-c4ccccn4)CC3)c12 [B-84] | < 500
CCOC(=O)N1CCN(c2ccc(-c3ncc(OC)c4c(C(=O)C(=O)N5CCN(c6nnnn6-c6ccccn6)CC5)c[nH]c34)cc2)CC1 [B-85] | < 500
COc1cnc(-c2ccc(N3CCN(C(=O)NC(C)(C)C)CC3)cc2)c2[nH]cc(C(=O)C(=O)N3CCN(c4nnnn4-c4ccccn4)CC3)c12 [B-86] | < 500
COc1cnc(-c2ccc(N3CCN(C(=O)NC(C)C)CC3)cc2)c2[nH]cc(C(=O)C(=O)N3CCN(c4nnnn4-c4ccccn4)CC3)c12 [B-87] | < 500
COc1ncc(-c2ncc(OC)c3c(C(=O)C(=O)N4CCN(c5nnnn5-c5ccccn5)CC4)c[nH]c23)s1 [B-88] | < 500
CCOc1ncc(-c2ncc(OC)c3c(C(=O)C(=O)N4CCN(c5nnnn5-c5ccccn5)CC4)c[nH]c23)s1 [B-89] | < 500
COc1cnc(-c2cnc(C)s2)c2[nH]cc(C(=O)C(=O)N3CCN(c4nnnn4-c4ccccn4)CC3)c12 [B-90] | < 500
CCc1ncc(-c2ncc(OC)c3c(C(=O)C(=O)N4CCN(c5nnnn5-c5ccccn5)CC4)c[nH]c23)s1 [B-91] | < 500
COc1cnc(Nc2ccncn2)c2[nH]cc(C(=O)C(=O)N3CCN(c4nnnn4-c4ccccn4)CC3)c12 [B-92] | < 500
C[C@@H]1CN(c2nnnn2-c2ccccc2)C[C@H](C)N1C(=O)C(=O)c1c[nH]c2c(-n3ccnn3)ncc(F)c12 [C-1, 1-((2R,6S)-2,6-dimethyl-4-(1-phenyl-1H-tetrazol-5-yl)piperazin-1-yl)-2-(4-fluoro-7-(1H-1,2,3-triazol-1-yl)-1H-pyrrolo[2,3-c]pyridin-3-yl)ethane-1,2-dione] | < 500
COc1cnc(-n2cnc(C)n2)c2[nH]cc(C(=O)C(=O)N3CCN(c4ncccc4C#N)CC3)c12 [D-1] | < 500
COc1cnc(-n2cnc(C)n2)c2[nH]cc(C(=O)C(=O)N3CCN(c4ncccc4I)CC3)c12 [D-2] | < 500
COc1cnc(-n2cnc(C)n2)c2[nH]cc(C(=O)C(=O)N3CCN(c4ncccc4C)CC3)c12 [D-3] | < 500
N#Cc1cccnc1N1CCN(C(=O)C(=O)c2c[nH]c3c(-n4ccnn4)ncc(F)c23)CC1 [D-4] | < 500
O=C(C(=O)N1CCN(c2ncccc2I)CC1)c1c[nH]c2c(-n3ccnn3)ncc(F)c12 [D-5] | < 500
Cc1cccnc1N1CCN(C(=O)C(=O)c2c[nH]c3c(-n4ccnn4)ncc(F)c23)CC1 [D-6] | < 500
COc1cnc(-n2cnc(C)n2)c2[nH]cc(C(=O)C(=O)N3CCN(C4=C(c5ccccc5)C(=O)c5ccccc54)CC3)c12 [D-7] | < 500
CCOC(=O)c1cccnc1N1CCN(C(=O)C(=O)c2c[nH]c3c(-n4cnc(C)n4)ncc(OC)c23)CC1 [D-8] | < 500
COc1cnc(-n2cnc(C)n2)c2[nH]cc(C(=O)C(=O)N3CCN(c4nc5ccccc5nc4-n4nc(C)cc4C)CC3)c12 [D-9] | > 500

Compound | EC50 [nM]
COc1cnc(-n2cnc(C)n2)c2[nH]cc(C(=O)C(=O)N3CCN(c4nc(C)nc5scc(-c6ccccc6)c45)C[C@H]3C)c12 [D-10] | < 500
COc1cnc(-n2cnc(C)n2)c2[nH]cc(C(=O)C(=O)N3CCN(c4ncnc5cc(-c6ccccc6)sc45)C[C@H]3C)c12 [D-11] | > 500
COc1cnc(-n2cnc(C)n2)c2[nH]cc(C(=O)C(=O)N3CCN(c4ncccc4N4CC(C)(C)C4=O)C[C@H]3C)c12 [D-12] | > 500
COc1cnc(-n2cnc(C)n2)c2[nH]cc(C(=O)C(=O)N3CCN(c4ncccc4C(=O)N4CCOCC4)C[C@H]3C)c12 [D-13] | > 500
COc1cnc(-n2cnc(C)n2)c2[nH]cc(C(=O)C(=O)N3CCN(c4snnc4-c4ccccc4)C[C@H]3C)c12 [D-14] | < 500
COc1cnc(-n2cnc(C)n2)c2[nH]cc(C(=O)C(=O)N3CCN(c4ncccc4-c4nc5ccccc5s4)CC3)c12 [D-15] | < 500
COc1cnc(-n2cnc(C)n2)c2[nH]cc(C(=O)C(=O)N3CCN(c4ncccc4C(=O)NCc4ccccc4)CC3)c12 [D-16] | > 500
CCOc1nccnc1N1CCN(C(=O)C(=O)c2c[nH]c3c(-n4cnc(C)n4)ncc(OC)c23)CC1 [D-17] | < 500
COc1cnc(-n2cnc(C)n2)c2[nH]cc(C(=O)C(=O)N3CCN(c4nsnc4Cl)CC3)c12 [D-20] | < 500
COc1cnc(-n2cnc(C)n2)c2[nH]cc(C(=O)C(=O)N3CCN(c4ncccc4C(=O)Nc4ccccc4)CC3)c12 [D-22] | > 500
O=C1C(c2ccccc2)=C(N2CCN(C(=O)C(=O)c3c[nH]c4c(-n5ccnn5)ncc(F)c34)CC2)c2ccccc21 [D-23] | < 500
CCOC(=O)c1cccnc1N1CCN(C(=O)C(=O)c2c[nH]c3c(-n4ccnn4)ncc(F)c23)CC1 [D-24] | < 500
Cc1nc(N2CCN(C(=O)C(=O)c3c[nH]c4c(-n5ccnn5)ncc(F)c34)[C@H](C)C2)c2c(-c3ccccc3)csc2n1 [D-26] | > 500
C[C@@H]1CN(c2ncnc3cc(-c4ccccc4)sc23)CCN1C(=O)C(=O)c1c[nH]c2c(-n3ccnn3)ncc(F)c12 [D-27] | < 500
C[C@@H]1CN(c2ncccc2N2CC(C)(C)C2=O)CCN1C(=O)C(=O)c1c[nH]c2c(-n3ccnn3)ncc(F)c12 [D-28] | > 500
C[C@@H]1CN(c2ncccc2C(=O)N2CCOCC2)CCN1C(=O)C(=O)c1c[nH]c2c(-n3ccnn3)ncc(F)c12 [D-29] | > 500
C[C@@H]1CN(c2snnc2-c2ccccc2)CCN1C(=O)C(=O)c1c[nH]c2c(-n3ccnn3)ncc(F)c12 [D-30] | < 500
O=C(C(=O)N1CCN(c2ncccc2-c2nc3ccccc3s2)CC1)c1c[nH]c2c(-n3ccnn3)ncc(F)c12 [D-31] | > 500
O=C(c1ccccn1)c1cccnc1N1CCN(C(=O)C(=O)c2c[nH]c3c(-n4ccnn4)ncc(F)c23)CC1 [D-32] | < 500
O=C(c1nccs1)c1cccnc1N1CCN(C(=O)C(=O)c2c[nH]c3c(-n4ccnn4)ncc(F)c23)CC1 [D-33] | < 500
O=C(NC1CCCCC1)c1cccnc1N1CCN(C(=O)C(=O)c2c[nH]c3c(-n4ccnn4)ncc(F)c23)CC1 [D-34] | < 500
